From paper PMC8674143, “Accuracy mechanism of eukaryotic ribosome translocation” (Nature, 2021)

Target: T1, eEF2 (Saccharomyces cerevisiae, UniProt P32324)
T1 construct: gene EFT1; native full-length eEF2 purified from yeast, diphthamide at residue 699
Assay: X-ray crystallography, […] Å
Assay type: binding
Conditions: on the 80S ribosome with mRNA, Phe-tRNAPhe and fMet-tRNAfMet; GTP pocket of G domain, next to sarcin-ricin loop; Mg2+; 0.25 mM ligand

T1 sequence (P32324 whole entry): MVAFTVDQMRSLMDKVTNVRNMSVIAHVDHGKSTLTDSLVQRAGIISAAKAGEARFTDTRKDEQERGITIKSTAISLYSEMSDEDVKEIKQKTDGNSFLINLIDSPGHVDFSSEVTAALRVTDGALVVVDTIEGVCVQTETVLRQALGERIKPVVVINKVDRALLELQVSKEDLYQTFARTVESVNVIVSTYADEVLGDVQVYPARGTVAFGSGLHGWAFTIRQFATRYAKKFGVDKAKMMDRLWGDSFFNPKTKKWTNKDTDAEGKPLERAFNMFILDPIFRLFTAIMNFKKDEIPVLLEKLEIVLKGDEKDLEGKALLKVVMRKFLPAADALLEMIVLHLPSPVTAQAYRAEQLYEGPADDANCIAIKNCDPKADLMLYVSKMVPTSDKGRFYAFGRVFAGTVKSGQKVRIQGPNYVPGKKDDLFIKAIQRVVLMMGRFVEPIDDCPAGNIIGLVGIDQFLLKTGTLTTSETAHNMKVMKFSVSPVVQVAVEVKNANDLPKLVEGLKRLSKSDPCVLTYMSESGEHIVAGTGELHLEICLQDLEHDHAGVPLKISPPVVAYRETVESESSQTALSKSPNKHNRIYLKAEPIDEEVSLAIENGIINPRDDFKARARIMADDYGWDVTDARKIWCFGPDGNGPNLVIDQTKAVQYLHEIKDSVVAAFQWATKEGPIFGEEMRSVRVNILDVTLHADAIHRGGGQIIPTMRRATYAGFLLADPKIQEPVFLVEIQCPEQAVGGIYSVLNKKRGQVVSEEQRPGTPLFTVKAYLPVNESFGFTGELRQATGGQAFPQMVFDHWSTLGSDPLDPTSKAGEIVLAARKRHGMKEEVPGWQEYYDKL

Nc1nc2c(ncn2[C@@H]2O[C@H](COP(=O)(O)OP(=O)(O)CP(=O)(O)O)[C@@H](O)[C@H]2O)c(=O)[nH]1 [GMPPCP]
X-ray crystallography, 3.2 Å: native S. cerevisiae eEF2, the nonhydrolyzable GTP analogue GMPPCP, mRNA and two tRNAs
